Read-outs that look alike come from different tables or passages of the source. Marks after values point to notes of the source that are not given here.
What was measured:
DOHH2 cells = assay: Medium throughput combination proliferation assay (CellTiter-Glo, Chou-Talalay CI / potency shift); details: for 1/α: DOHH2, combination with Compound 44, data normalized to individual 6438 concentrations instead of DMSO; for IC50: read-out: Potency (IC50), DOHH-2 (GCB sub-type WT EZH2), single agent, after 3 days of dosing; for Summary of Combinations with Compound 44: DOHH2 (EZH2 WT GCB), drug combined with Compound 44
OCI-LY19 cells = assay: as above; details: for IC50: Homo sapiens, OCI-LY19, 72 h, read-out: Potency (IC50); for 1/α: OCI-LY19, combination with Compound 44
SU-DHL-5 cells = assay: as above; details: for IC50: Homo sapiens, SU-DHL-5, 72 h, read-out: Potency (IC50); for 1/α: combination with Compound 44
Toledo cells = assay: as above; details: for 1/α / IC50: Toledo; for 1/α: combination with Compound 44; for IC50: read-out: Potency (IC50), single agent, dosed for 5 days; for Summary of Combinations with Compound 44: Toledo (EZH2 WT GCB), drug combined with Compound 44
SU-DHL-10 cells = assay: as above; details: for IC50: read-out: Potency (IC50), SU-DHL-10 (GCB sub-type EZH2 Y646F), after 3 days of dosing; for IC50 / growth inhibition by the drug by itself: single agent; for Summary of Combinations with Compound 44: SU-DHL10 (EZH2 Mutant GCB), drug combined with Compound 44; for growth inhibition by the drug by itself: SU-DHL10 (EZH2 mutant); for CI range (combination index) / 1/α: SU-DHL-10; for CI range (combination index): combination with Compound 44 at constant ratio, CI range above Fractional effect of 0.5; for 1/α: combination with Compound 44
WSU-DLCL2 cells = assay: as above; details: for IC50: Homo sapiens, WSUDLCL2, 72 h, read-out: Potency (IC50); for Summary of Combinations with Compound 44: WSU-DLCL2 (EZH2 Mutant GCB), drug combined with Compound 44; for growth inhibition by the drug by itself: WSU-DLCL2 (EZH2 mutant); for 1/α: combination with Compound 44
SU-DHL6 cells = assay: as above; type: cell-based; details: SU-DHL6 (EZH2 Mutant GCB); drug combined with Compound 44
[1] = test system: Sestrin 1 (SESN1), TNF and GILZ expression; details: all cell lines; 4 days
Experimental: Gene expression was normalized to array's B2M and fold change compared to DMSO was calculated using the ΔΔCt method.

H3K27 acetylation levels = details: WSU-DLCL2, OCI-LY19, RL cells; 4 days
Experimental: Acid extracted histones were analyzed by western blot for H3K27 acetylation levels.

H3K27Me3 levels = details: single agent, four day treatment

IC50 (OCI-LY19 cells) [nM] | IC50 (SU-DHL-5 cells) [nM] | IC50 (SU-DHL-10 cells) [nM] | Compound | 1/α (DOHH2 cells) | IC50 (DOHH2 cells) [nM] | 1/α (OCI-LY19 cells) | 1/α (Toledo cells) | IC50 (Toledo cells) [nM] | IC50 (WSU-DLCL2 cells) [nM] | Summary of Combinations with Compound 44 (SU-DHL-10 cells) | Summary of Combinations with Compound 44 (WSU-DLCL2 cells) | other results
 | 0.72 | 0.854 | CO[C@H]1C[C@@H]2CC[C@@H](C)[C@@](O)(O2)C(=O)C(=O)N2CCCC[C@H]2C(=O)O[C@H]([C@H](C)C[C@@H]2CC[C@@H](OCCO)[C@H](OC)C2)CC(=O)[C@H](C)/C=C(\C)[C@@H](O)[C@@H](OC)C(=O)[C@H](C)C[C@H](C)/C=C/C=C/C=C/1C [Everolimus] |  | 0.13 | No effect | No effect | 0.1 | 0.653 | very strong synergy | very strong synergy | 
> 10000 | > 10000 | > 10000 | CC(=O)Nc1cccc(-n2c(=O)n(C3CC3)c(=O)c3c(Nc4ccc(I)cc4F)n(C)c(=O)c(C)c32)c1 [Trametinib] |  | > 10000 | No effect | No effect | > 10000 | 8610 |  |  | 
 |  |  | CC[C@]1(O)C[C@H]2CN(CCc3c([nH]c4ccccc34)[C@@](C(=O)OC)(c3cc4c(cc3OC)N(C=O)[C@H]3[C@@](O)(C(=O)OC)[C@H](OC(C)=O)[C@]5(CC)C=CCN6CC[C@]43[C@@H]65)C2)C1 [Vincristine] |  |  |  |  |  |  | Additive | Additive | Summary of Combinations with Compound 44 (DOHH2 cells): No effect; Summary of Combinations with Compound 44 (SU-DHL6 cells): Additive; Summary of Combinations with Compound 44 (Toledo cells): No effect; Summary of Combinations with Compound 44 (SU-DHL-10 cells; listed as vincristine): Combination benefit; growth inhibition by the drug by itself (SU-DHL-10 cells): concentration-dependent growth inhibition; Summary of Combinations with Compound 44 (WSU-DLCL2 cells; listed as vincristine): Combination benefit; growth inhibition by the drug by itself (WSU-DLCL2 cells; single agent): concentration-dependent growth inhibition
42 | 9.8 | 19.5 | COC1=CC(c2cc3ccccc3[nH]2)=N/C1=C\c1[nH]c(C)cc1C [Obatoclax] |  | 51 | 1.50 |  | 96 | 59 |  |  | CI range (combination index) (SU-DHL-5 cells; SU-DHL-5, combination with Compound 44 at constant ratio, CI range above Fractional effect of 0.5): 1.26-1.61^e; CI range (combination index) (SU-DHL-10 cells): 0.91-1.36^e; CI range (combination index) (WSU-DLCL2 cells; WSU-DLCL2, combination with Compound 44 at constant ratio, CI range above Fractional effect of 0.5): 1.10^e
79 | 3.4 | > 100 | C[C@@H]1C[C@H]2[C@@H]3CCC4=CC(=O)C=C[C@]4(C)[C@@]3(F)[C@@H](O)C[C@]2(C)[C@@]1(O)C(=O)CO [Dexamethasone] | 4.2 | 5.6 | 7.7 | No effect | > 100 | > 10000 |  |  | Summary of Combinations with Compound 44 (Toledo cells): No effect; 1/α (SU-DHL-10 cells): 3.7
> 10000 | 3760 | 2210 | COc1cc(Nc2ncc(F)c(Nc3ccc4c(n3)NC(=O)C(C)(C)O4)n2)cc(OC)c1OC [Tamatinib] | 0.81 | 1210 | No effect | No effect | 3200 | 3420 | very strong synergy | very strong synergy | 
 |  |  | COc1cccc2c1C(=O)c1c(O)c3c(c(O)c1C2=O)C[C@@](O)(C(=O)CO)C[C@@H]3O[C@H]1C[C@H](N)[C@H](O)[C@H](C)O1 [Doxorubicin] |  |  |  |  |  |  | Additive | Synergy | Summary of Combinations with Compound 44 (DOHH2 cells): No effect; Summary of Combinations with Compound 44 (SU-DHL6 cells): Additive; Summary of Combinations with Compound 44 (Toledo cells): No effect; growth inhibition by the drug by itself (SU-DHL-10 cells): concentration-dependent growth inhibition; growth inhibition by the drug by itself (WSU-DLCL2 cells; single agent): concentration-dependent growth inhibition
131 | > 10000 | > 10000 | CC1(C)CCC(c2ccc(Cl)cc2)=C(CN2CCN(c3ccc(C(=O)NS(=O)(=O)c4ccc(N[C@H](CCN5CCOCC5)CSc5ccccc5)c(S(=O)(=O)C(F)(F)F)c4)cc3)CC2)C1 [Navitoclax] |  | 540 | 6.60 | No effect | 590 | 3540 |  |  | 1/α (SU-DHL-5 cells; SU-DHL-5): No Effect
12 | 4 | 8.6 | CC(C)C[C@H](NC(=O)[C@H](Cc1ccccc1)NC(=O)c1cnccn1)B(O)O [Bortezomib] | 0.96 | 6.6 | 1.67 | 0.96 | 4.3 | 6.5 |  |  | 
> 10000 | 2590 | 8430 | CC[C@H](Nc1ncnc2[nH]cnc12)c1nc2cccc(F)c2c(=O)n1-c1ccccc1 [Idelalisib] | 0.59 | 2980 | No effect | 1.1^ | 9800 | 2050 | very strong synergy | very strong synergy | 
47 | 39 | > 1000 | C[C@]12C=CC(=O)C=C1CC[C@@H]1[C@@H]2[C@@H](O)C[C@@]2(C)[C@H]1CC[C@]2(O)C(=O)CO [Prednisolone] | 9.5 | 133 | 4.2 | No effect | > 1000 |  | Synergy | Synergy | Summary of Combinations with Compound 44 (DOHH2 cells): Synergy; potency of the glucocorticoid agonist with addition of Compound 44 (DOHH2 cells; DOHH2 EZH2 wild-type cells): increased; Summary of Combinations with Compound 44 (OCI-LY19 cells; OCI-LY-19 (EZH2 WT GCB), drug combined with Compound 44): Synergy; TSC22D3/GILZ expression [1]: up-regulated; Summary of Combinations with Compound 44 (SU-DHL6 cells): Synergy; global H3K27 acetylation levels (H3K27 acetylation levels): not affected; H3K27Me3 levels (H3K27Me3 levels; OCI-LY19 cells): increase H3K27Me3 levels at higher doses; H3K27Me3 levels (H3K27Me3 levels; RL cells): no effect; H3K27Me3 levels (H3K27Me3 levels; WSU-DLCL2 cells): no effect; Summary of Combinations with Compound 44 (SU-DHL-5 cells; SU-DHL5 (EZH2 WT GCB), drug combined with Compound 44): Synergy; 1/α (SU-DHL-5 cells; SU-DHL-5): 7.6; Summary of Combinations with Compound 44 (Toledo cells): No effect; growth inhibition by the drug by itself (SU-DHL-10 cells): no sensitivity; 1/α (SU-DHL-10 cells): 4.2; growth inhibition by the drug by itself (WSU-DLCL2 cells; single agent): no sensitivity; 1/α (WSU-DLCL2 cells; WSU-DLCL2): 9.7
304 | 162 | 275 | NC1(c2ccc(-c3nc4ccn5c(=O)[nH]nc5c4cc3-c3ccccc3)cc2)CCC1 [MK-2206] | 0.64 | 86 | 71.40 |  | 95 | 127 | very strong synergy | very strong synergy | 
 |  |  | Rituximab: the antibody combined with chemotherapeutics in R-CHOP, targets cd-20 |  |  |  |  |  |  |  |  | 1/α (WSU-DLCL2 cells; WSU-DLCL2): 2.6; Potency (IC50), Rituximab (WSU-DLCL2 cells; WSU-DLCL2, single agent, after 3 days of dosing): >10^a μg/ml
53 | > 10000 | 3040 | CC1(C)CCC(CN2CCN(c3ccc(C(=O)NS(=O)(=O)c4ccc(NCC5CCOCC5)c([N+](=O)[O-])c4)c(Oc4cnc5[nH]ccc5c4)c3)CC2)=C(c2ccc(Cl)cc2)C1 [ABT-199] |  | 77 | 4.20 |  | 190 | 1940 |  |  | 1/α (SU-DHL-5 cells; SU-DHL-5): No Effect; CI range (combination index) (SU-DHL-10 cells): 1.2-1.4^e

Compound | IC50 (OCI-LY19 cells) [nM] | IC50 (SU-DHL-5 cells) [nM] | IC50 (SU-DHL-10 cells) [nM] | 1/α (DOHH2 cells) | IC50 (DOHH2 cells) [nM] | 1/α (OCI-LY19 cells) | 1/α (Toledo cells) | IC50 (Toledo cells) [nM] | IC50 (WSU-DLCL2 cells) [nM] | Summary of Combinations with Compound 44 (SU-DHL-10 cells) | Summary of Combinations with Compound 44 (WSU-DLCL2 cells) | other results
C=CC(=O)N1CCC[C@@H](n2nc(-c3ccc(Oc4ccccc4)cc3)c3c(N)ncnc32)C1 [Ibrutinib] | > 10000 | 1330 | 1150 | 0.67 | 956 | No effect | No effect | > 10000 | 278 |  |  | 

Reference: patent US10463671B2, “Combination therapy for treating cancer” (Epizyme, Inc., priority 2013, dated 2019)
